One may read the Ki as a measure of affinity in units of concentration, obtained from inhibition or displacement. Broadly, the IC50 is the midpoint of a concentration-inhibition curve. A lower IC50 goes with higher potency.

The source of these data is ChEMBL document CHEMBL1221208, “ATP-competitive inhibitors of the mitotic kinesin KSP that function via an allosteric mechanism” (Nat Chem Biol, 2007).

Experiment [1] concerns the target Kinesin-like protein KIF11 (Homo sapiens, UniProt P52732, D130V). In words: Inhibition of human KSP D130V mutant using varying ATP levels in presence of saturating levels of microtubule by Lineweaver-Burke plot.
Experiment [2] has as its target Kinesin-like protein KIF11 (Homo sapiens, UniProt P52732, A133D). In words: Inhibition of human KSP A133D mutant using varying ATP levels in presence of saturating levels of microtubule by Lineweaver-Burke plot.
The nature of experiment [3]: Inhibition of human KSP KHC-L5 mutant using varying ATP levels in presence of saturating levels of microtubule by Lineweaver-Burke plot.
Experiment [4] concerns T1, Kinesin-like protein KIF11 (Homo sapiens), P52732 [D130V].
T1 sequence (whole entry): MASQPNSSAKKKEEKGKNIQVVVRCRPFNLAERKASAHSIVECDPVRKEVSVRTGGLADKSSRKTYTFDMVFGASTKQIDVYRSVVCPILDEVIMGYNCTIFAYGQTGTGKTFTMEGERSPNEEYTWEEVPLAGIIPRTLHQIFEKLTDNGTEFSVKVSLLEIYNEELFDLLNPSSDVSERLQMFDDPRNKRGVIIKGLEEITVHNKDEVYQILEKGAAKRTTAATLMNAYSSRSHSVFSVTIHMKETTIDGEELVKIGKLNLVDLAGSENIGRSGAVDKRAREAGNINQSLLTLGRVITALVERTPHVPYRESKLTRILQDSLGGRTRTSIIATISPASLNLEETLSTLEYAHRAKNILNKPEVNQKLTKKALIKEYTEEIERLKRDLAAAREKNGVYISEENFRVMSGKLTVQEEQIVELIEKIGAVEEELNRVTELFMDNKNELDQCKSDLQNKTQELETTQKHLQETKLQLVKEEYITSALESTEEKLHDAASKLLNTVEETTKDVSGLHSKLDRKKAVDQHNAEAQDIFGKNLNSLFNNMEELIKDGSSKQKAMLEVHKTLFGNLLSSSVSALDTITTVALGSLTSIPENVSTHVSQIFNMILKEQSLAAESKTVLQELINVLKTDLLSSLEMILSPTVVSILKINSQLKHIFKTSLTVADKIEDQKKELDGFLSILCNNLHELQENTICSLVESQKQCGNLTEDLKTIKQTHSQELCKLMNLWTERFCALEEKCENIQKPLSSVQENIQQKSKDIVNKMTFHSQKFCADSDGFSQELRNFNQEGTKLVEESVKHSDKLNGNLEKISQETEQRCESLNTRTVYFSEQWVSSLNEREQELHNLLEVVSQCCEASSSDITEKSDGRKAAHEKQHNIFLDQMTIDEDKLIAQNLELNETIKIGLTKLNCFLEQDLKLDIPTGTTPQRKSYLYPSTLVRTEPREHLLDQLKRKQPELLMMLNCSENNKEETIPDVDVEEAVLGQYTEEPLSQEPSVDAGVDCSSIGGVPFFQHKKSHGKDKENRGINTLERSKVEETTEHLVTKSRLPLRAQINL
Briefly: Competitive inhibition of human KSP D130V mutant with respect to ATP using varying ATP levels in presence of saturating levels of microtubule by Lineweaver-Burke plot.

The target of experiment [5] is T2, Kinesin-like protein KIF11 (Homo sapiens) (UniProt P52732).
T2 sequence (whole entry): T1 sequence (whole entry) with V130D
In words: Uncompetitive inhibition of human wild type Eg5 with respect to microtubule using varying ATP levels in presence of saturating levels of microtubule by Lineweaver-Burke plot.

The subject of experiment [6] is T1, Kinesin-like protein KIF11 (Homo sapiens), P52732 [D130V]. Briefly: Uncompetitive inhibition of human KSP D130V mutant with respect to microtubule using varying ATP levels in presence of saturating levels of microtubule by Lineweaver-Burke plot.
Experiment [7] has as its system HCT-116. Briefly: Antiproliferative activity against human HCT116 cells expressing Kinesin-like protein KIF11 D130V mutant after 72 hrs by Cell titer Glo assay. It is filed as functional, cell-based. To be noted: HCT-116, 72 h. (In ATP-based viability assays light output follows the ATP content of the culture.)
A further experiment deals with SK-OV-3. In words: Induction of monopolar spindle formation in human SKOV3 cells. It is filed as functional, cell-based.
Experiment [8] concerns HCT-116. Briefly: Induction of monopolar spindle formation in human HCT116 cells. It is filed as functional, cell-based.
For experiment [9], the system named is HCT-116. In words: Antiproliferative activity against IC50 biaryl selected drug-resistant against human HCT116 cells after 72 hrs by Cell titer Glo assay. It is filed as functional, cell-based. To be noted: HCT-116, 72 h.
Experiment [10] relates to HCT-116. Briefly: Antiproliferative activity against IC95 biaryl selected drug-resistant against human HCT116 cells after 72 hrs by Cell titer Glo assay. The following applies: HCT-116, 72 h. It is filed as functional, cell-based.
Experiment [11] concerns HCT-116. Briefly: Antiproliferative activity against IC50 biaryl selected human HCT116 cells expressing Kinesin-like protein KIF11 D130V mutant after 72 hrs by Cell titer Glo assay. To be noted: HCT-116, 72 h. It is filed as functional, cell-based.
Experiment [12] can be described thus: Inhibition of KSP A356 mutant in 3x IC95 biaryl selected human HCT116 cells using varying ATP levels in presence of saturating levels of microtubule by Lineweaver-Burke plot. The following applies: hct-116. It is filed as cell-based.
Experiment [13] addresses Kinesin-like protein KIF11 (Homo sapiens, UniProt P52732, I299F). In words: Inhibition of human KSP I299F mutant in 6x IC95 biaryl selected human HCT116 cells using varying ATP levels in presence of saturating levels of microtubule by Lineweaver-Burke plot. It is filed as cell-based, HCT-116.

Numbering of substitutions follows the chain as printed. Calls of active or inactive are those of the source. The rule behind the calls is not given here.

Kinesin-like protein KIF11 (Homo sapiens, UniProt P52732, A133D), sequence (P52732 whole entry A133D): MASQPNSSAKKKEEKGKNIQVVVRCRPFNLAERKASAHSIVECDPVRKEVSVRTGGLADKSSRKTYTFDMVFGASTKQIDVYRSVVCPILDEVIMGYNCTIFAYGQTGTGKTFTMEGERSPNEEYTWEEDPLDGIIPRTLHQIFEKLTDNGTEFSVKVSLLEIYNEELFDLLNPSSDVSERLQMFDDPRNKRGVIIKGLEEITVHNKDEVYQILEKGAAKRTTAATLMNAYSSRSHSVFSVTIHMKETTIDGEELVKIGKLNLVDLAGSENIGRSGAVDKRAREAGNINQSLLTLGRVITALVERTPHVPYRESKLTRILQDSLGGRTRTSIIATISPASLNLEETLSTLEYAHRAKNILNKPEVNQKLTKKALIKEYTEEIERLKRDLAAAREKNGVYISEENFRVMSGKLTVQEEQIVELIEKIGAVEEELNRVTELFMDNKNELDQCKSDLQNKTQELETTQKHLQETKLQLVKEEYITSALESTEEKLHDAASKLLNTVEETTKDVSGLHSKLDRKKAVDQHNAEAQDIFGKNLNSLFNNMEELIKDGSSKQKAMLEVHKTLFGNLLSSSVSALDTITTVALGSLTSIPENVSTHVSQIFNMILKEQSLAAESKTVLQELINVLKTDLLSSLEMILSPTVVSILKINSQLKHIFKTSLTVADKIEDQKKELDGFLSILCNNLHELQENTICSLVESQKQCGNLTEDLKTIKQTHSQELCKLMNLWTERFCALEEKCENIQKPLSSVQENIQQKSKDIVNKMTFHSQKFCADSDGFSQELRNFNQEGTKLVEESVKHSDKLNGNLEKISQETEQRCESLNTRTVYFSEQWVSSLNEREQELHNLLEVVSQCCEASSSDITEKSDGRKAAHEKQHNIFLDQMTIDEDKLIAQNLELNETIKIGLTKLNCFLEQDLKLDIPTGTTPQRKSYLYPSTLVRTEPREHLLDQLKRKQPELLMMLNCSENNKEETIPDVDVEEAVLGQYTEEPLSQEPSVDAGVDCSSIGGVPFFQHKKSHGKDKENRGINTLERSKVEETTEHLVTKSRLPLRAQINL
Kinesin-like protein KIF11 (Homo sapiens, UniProt P52732, I299F), sequence (P52732 whole entry I299F): as the sequence (P52732 whole entry A133D) above, with D133A, I299F counted along it

In the case of `NC(=O)Nc1ccc(-c2ccc(C(F)(F)F)cc2)cc1F`, the Ki was determined as 10 nM in experiment [1], 6.8 nM in experiment [2] and 6 nM in experiment [3]. The inhibition entry in experiment [4], in experiment [5] and in experiment [6] was “Active” throughout.

For `O=C1CCc2cc(-c3ccc(C(F)(F)F)cc3)ccc2N1`, the Ki was 2.2 nM in experiment [1]; 1.4 nM in experiment [2]; 2.1 nM in experiment [3]; 109 nM in experiment [12]; 66 nM in experiment [13]. Moreover, the inhibition entry in [4], in [5] and in [6] was “Active” in each case. Besides, the IC50 with HCT-116 [7] turned out to be 0.45 nM; with HCT-116 [9], 36 nM; with HCT-116 [10], 162 nM; with HCT-116 [11], 0.83 nM. Moreover, the result in the experiment on SK-OV-3 and in the experiment with HCT-116 [8] was Active.
